{"source": "patent US8895555B2", "about": "“Methods of treating intestinal diseases and inflammatory conditions related to HIV-AIDS” (Bach Pharma, Inc., priority 2009, dated 2014)", "key": {"[1]": {"test_system": "ts1 virus, a mutant of MoMuLV", "settings": "mouse, in vivo", "from_the_text": "GVT® (sodium a-luminol) was provided by Bach-Pharma, Inc., North Andover, Mass. Goat anti-MoMuLV gp70 was from Microbiology Associates, Burlingame, Calif. (this antibody recognizes epitopes shared by the mature gp70 viral envelope protein and the precursor preprotein gPr80^env). Anti-mouse Ki67 was from Vector Laboratories, Burlingame, Calif. Polyclonal and monoclonal anti-mouse TSHI3 were from Cell Signaling (Boston, Mass.) and Dr. John R. Klein's laboratory, respectively. Mand rabbit anti-activated caspase-3 was from Cell Signaling. Mouse monoclonal anti Nrf2 was from R&D systems (Minneapolis, Minn.). FITC and Texas Red-conjugated anti-mouse, rat, rabbit and goat antibodies were from Jackson ImmunoResearch (West Grove, Pa.).\nFVB/N mice were obtained from Taconic Farms (Germantown, N.Y.). Breeding FVB/N pairs were housed in sterilized microisolator cages and supplied with autoclaved feed and water ad libitum. The microisolators were kept in an environmentally controlled isolation room. For ts1 infection, four-day-old mice were inoculated intraperitoneally with 0.1 ml of vehicle (mock infection) or with 0.1 ml of a ts1 suspension containing 2×107 infectious units/ml.\nFor GVT treatment, animals from the control and ts1-infected groups are divided into two groups each […]. The infected mice are then divided again into two groups, one of whose individuals received 0.9% normal saline, intraperitoneally, five continuous days a week, followed by two resting days, until the end of the experiment. At the same time, mice from the other half of the infected animals received freshly prepared GVT, delivered intraperitoneally at 200 mg/kg body weight/day in 0.9% normal saline. The uninfected mice were also divided into two groups, one receiving saline alone, and the other receiving GVT as described above.\nAt 30 dpi, mice from all groups were sacrificed, and their small intestines (2 cm from the jejunum) processed for Western blotting of the tissues or for frozen section immunohistochemistry. All mice were observed daily for clinical signs of disease, and individuals from all groups were sacrificed at 30 dpi. Intestinal tissues to be used for Western blotting are removed, snap-frozen in liquid nitrogen and stored at −80° C. until use. For immunohistochemistry, intestine segments were snap-frozen in liquid nitrogen in OCT embedding compound. These animal protocols were approved by The University of Texas M.D. Anderson Cancer Center Institutional Animal Care and Use Committee.\nWestern blotting analysis was performed as described previously. Briefly, whole cell protein was extracted from whole intestines in radioimmunoprecipitation assay buffer (NP40, 0.5% sodium deoxycholate, 0.1% sodium dodecyl sulfate, 0.25 mM phenylmethylsulfonylfluoride, 1 mg/ml aprotinin, leupeptin, and pepstatin A, 1 mM sodium orthovanadate, and 1 mM sodium fluoride in phosphate-buffered saline, or PBS). Protein concentrations were measured using the Bio-Rad Dc protein assay reagent (Bio Rad Laboratories, Hercules, Calif.) as per the manufacturer's instructions. These lysates ([…] total protein per sample) were electrophoresed on 10% SDS-PAGE gels, and then transferred to polyvinylidene difluoride membranes (Millipore Corp, Bedford, Mass.). The membranes were blocked at room temperature for 1 hr in iris-buffered saline, or TBS, with 5% nonfat milk, and incubated with unconjugated primary antibody for 2 hrs, followed by 3 washes with TBS. The blots were then incubated with species-appropriate horseradish peroxidase-conjugated secondary antibody for an additional 1 hr. After three washes, immune complexes were detected by chemiluminescence (NEN Life Science Products, Boston, Mass.). A monoclonal anti-13-actin antibody (Sigma, St. Louis, Mo.) was used as a loading control. Values calculated as the ratio of their normalized values against this number."}, "ts1 virus": {"test_system": "ts1 virus", "settings": "for disease course: T cell loss, thymic atrophy, wasting, death: ts1-infected mice treated with GVT", "from_the_text": "GVT® (monosodium luminol) was provided by Bach-Pharma, Inc., North Andover, Mass. Goat anti-MoMuLV gp70 was from Microbiology Associates, Burlingame, Calif. This antibody recognizes epitopes shared by the mature gp70 viral envelope protein and the precursor preprotein gPr80^env Monoclonal rabbit anti-cleaved caspase-3 was from Cell Signaling (Boston, Mass.). Mouse monoclonal anti-Nrf2 was from R&D systems (Minneapolis, Minn.). Polyclonal anticytokeratin-5 (CK5) and monoclonal anti-cytokeratin-8 (CK8) antibodies were from Covance Research (Richmond, Calif.) and the National Institutes of Health Developmental Studies Hybridoma Bank (Iowa City, Iowa), respectively. F1TC and Texas Red conjugated anti-mouse, rat, rabbit and goat antibodies were from Jackson ImmunoResearch (West Grove, Pa.).\n5 (and 6)-chloromethyl-2′,7′-dichlorodihydrofluorescein diacetate (CM-H2DCFDA; Molecular Probes, Eugene, Oreg.; hereafter called DCFDA), is a cell-permeant indicator for intracellular ROS, including hydrogen peroxide and superoxide. The dye itself is non-fluorescent, but when its acetate groups are removed by intracellular esterases, it is oxidized to form a highly fluorescent derivative, carboxydichlorofluorescein. Freshly isolated thymocytes were prepared from uninfected, GVT-only, ts1-only and ts1-GVT-treated mice, at 30 dpi. The thymocytes were incubated with […] of DCFDA, in culture medium (RPMI 1640) at 37° C. for 30 mm. After this loading period, the cells were washed twice with PBS, lysed, and the fluorescence of their contents measured using a Synergy HT multi-detection microplate reader (BioTek Instruments, Inc., Winoski, Vt.). The data are expressed as means±standard deviation (SD) of relative fluorescence units (against a standard curve) for DCFDA-loaded thymocyte lysates for three mice of each treatment group (See FIG. 16).\nFVB/N mice were obtained from Taconic Farms (Germantown, N.Y.). Breeding FVB/N pairs were housed in sterilized microisolator cages and supplied with autoclaved feed and water ad libitum. The microisolators were kept in an environmentally controlled isolation room. For ts1 infection, 4-day-old mice were inoculated intraperitoneally with 0.1 ml of vehicle (mock infection) or with 0.1 ml of a ts1 suspension containing 2×107 infectious units/ml. […] For GVT treatment, animals from the control and ts1 infected groups were divided into two groups each on the day of infection. Infected mice were then divided again into two groups, one of whose individuals received 0.9% normal saline, intraperitoneally, for five continuous days-a-week, followed by two resting days, until the end of the experiment, while the other half of the infected animals received freshly prepared GVT, delivered intraperitoneally at 200 mg/kg body weight/day in 0.9% normal saline. The uninfected mice were also divided into two groups, one receiving saline alone, and the other receiving GVT as described above. […] All mice were observed daily for clinical signs of disease, and the mice from all groups were sacrificed at 30 dpi.\nWhole thymi that were to be used for Western blotting were removed, snap frozen in liquid nitrogen and stored at −80° C. until use. For immunohistochemistry, thymi were snap-frozen in liquid nitrogen in Optimal Cutting Temperature (OCT) embedding compound (Sakura Finetek USA, Torrance, Calif.). These experimental protocols were approved by The University of Texas M.D. Anderson Cancer Center's Institutional Animal Care and Use Committee. […]"}, "[2]": {"test_system": "acute intestine infections of different nature", "procedure": "Clinical tests were performed on 56 patients suffering from acute intestine infections of different nature, accompanied by intoxication syndrome and diarrhea. All 56 patients had similar clinical manifestations, form and seriousness of the disease. The drug was prescribed to be used according to the following protocol: initial dose, 200 mg intramuscularly; then 3 hours later, a dose of 100 mg; and 3 hours later, a dose of 100 mg (400 mg per day).\nIn anamnesis of all patients no data of non-endurance or allergic reactions to any remedies was stated. GVT was administered to 54 patients within first hours after admission, before the application of traditional treatment methods, i.e., water-crystalloid solutions, vitamins, spasmolytics, as by acute dysentery and salmonellosis—antibacterial therapy."}, "[3]": {"test_system": "MT-4 cells (HIV-infected or uninfected)", "procedure": "HIV-1 infection of cultured T lymphoblastoid cells (MT4) causes a dramatic increase in intracellular ROS, and this is associated with cell death.\nGVT was added to the cell culture every day for all six days of culture. HIV causes apoptosis of MT-4 cells, measurable when the cells are harvested at 6 dpi."}, "[4]": {"test_system": "H9 cells (HIV-infected or uninfected)"}, "[5]": {"settings": "GVT intramuscularly, 400 mg per day"}}, "note": "Read-outs that look alike come from different tables or passages of the source.", "data": [{"smiles": "Nc1cccc2c(=O)[n-][nH]c(=O)c12.[Na+]", "note": "[GVT, monosodium luminol]", "values": [{"measurement": "CD4-positive cells in the LP of intestinal villi", "setting": "[1]", "value": "present in the LP of villi"}, {"measurement": "Ki67 staining pattern (cell cycling) of intestinal epithelium", "setting": "[1]", "value": "limited to the crypts"}, {"measurement": "Nrf2 in intestinal epithelial cells (immunostaining)", "setting": "[1]", "value": "heavy loading with Nrf2"}, {"measurement": "Nrf2 levels in intestinal tissues (Western blot)", "setting": "[1]", "value": "significantly upregulated"}, {"measurement": "TSH expression pattern along crypt-villus axis (immunostaining)", "setting": "[1]", "value": "limited to the crypts"}, {"measurement": "TSH level in intestinal lysates (Western blot)", "setting": "[1]", "value": "what appear to be normal TSH levels"}, {"measurement": "cleaved caspase-3 in intestines (Western blot)", "setting": "[1]", "value": "absent"}, {"measurement": "gPr80env accumulation in intestinal lysate (anti-gp70 Western blot)", "setting": "[1]", "value": "only gp70 was present"}, {"measurement": "crypt-villus organization of small intestine (H&E and gp70 staining)", "setting": "[1]; ip, 200 mg/kg/day", "value": "apparently normal crypt-villus organization"}, {"measurement": "Nrf2-positive cells in thymic sections (gp70/Nrf2 double staining)", "setting": "ts1 virus; ts1-GVT mice, 30 dpi", "value": "large numbers of red cellular profiles (Nrf2-positive only)"}, {"measurement": "thymic corticomedullary organization (H&E)", "setting": "ts1 virus; ts1-GVT mice, 30 dpi", "value": "normal corticomedullary organization"}, {"measurement": "thymus weight", "setting": "ts1 virus; ts1-GVT mice, 30 dpi", "value": "no thymic weight loss"}, {"measurement": "disease course: T cell loss, thymic atrophy, wasting, death", "setting": "ts1 virus", "value": "delayed T cell loss and thymic atrophy for many weeks"}, {"measurement": "disease course: T cell loss, thymic atrophy, wasting, death", "setting": "ts1 virus; listed as monosodium luminol", "value": "significantly delays thymic atrophy, wasting, and death"}, {"measurement": "patients with body temperature normalized on the 1st or 2nd day of treatment", "setting": "[2]; 53 patients of 56", "value": 94.6, "unit": "%"}, {"measurement": "general weakness", "setting": "[2]; [5]", "value": "disappeared on the 3rd day"}, {"measurement": "time to positive effect", "setting": "[2]; [5]", "value": "≤ 24", "unit": "h"}, {"measurement": "intoxication", "setting": "[2]; GVT intramuscularly, 400 mg per day, majority of patients", "value": "decrease in intoxication on the 1st and 2nd days"}, {"measurement": "viability of uninfected MT-4 cells", "setting": "[3]; GVT added every day for 6 days of culture", "value": "increases the viability of uninfected cells"}, {"measurement": "apoptosis of HIV-infected MT-4 cells", "setting": "[3]; GVT added every day for 6 days, harvested at 6 dpi", "value": "significantly reduces apoptosis"}, {"measurement": "survival of HIV-infected MT4 cells", "setting": "[3]; HIV-1 infected, GVT-treated", "value": "the infected cells survive"}, {"measurement": "Nrf2 levels in MT-4 cells", "setting": "[3]; days 1-6 dpi, infected or not", "value": "an increase"}, {"measurement": "viability of uninfected MT-4 cells", "setting": "[3]; single dose on day 1", "value": "no effect on their viability"}, {"measurement": "effect on uninfected MT-4 cells (proliferation)", "setting": "[3]; uninfected, FIG. 9", "value": "mitogenic"}, {"measurement": "ROS in uninfected H9 cells", "setting": "[4]", "value": "does not dramatically reduce ROS"}]}]}
